Data on two molecules can be found in patent publication US20210198248A1, “FUMARATE SALT OF 5-((5-METHYL-2-((3,4,5-[…])AMINO)PYRIMIDIN-4-YL)AMINO)-BENZO[D]OXAZOL-2(3H)-ONE” (ASTRAZENECA AB, priority 2018, published 2021).

Series [1] has as its system JAK. The settings on record: cell-based assay, WO 2010/085684 page 314; cited from earlier work.
Series [2] in a line: Dissolution measurements, μ-DISS Profiler, micronized material. It counts as physicochemical. As to the method: In general, 0.5 mg of the micronized material was added to the stirred dissolution media (20 mL 0.1 M acetate buffer, pH 4.5, 200 rpm, at 37° C.). The dissolution profiles were generated by measuring the UV absorbance at 280 nm wavelength. The material of interest was evaluated in triplicate.
The particle size of the materials was reduced by micronisation, as follows, using a 2″ Spiral Jet Mill or a 1″ MCOne fluid Jet Mill followed by subsequent particle size distribution (PSD) measurements.
Test substance was fed into the jet mill chamber, via a venturi feed system, by a vibratory feeder. Micronisation was achieved by particle collisions brought about by compressed gas (nitrogen) forced through angled nozzles in the jet mill chamber. Particles of different sizes develop different speeds and momentum and as the particle size is reduced the particles spiral towards the centre of the jet mill and exit via an exhaust into a collection bin. The process parameters that control the particle size, in addition to the inherent properties of the compound to be micronised, are the feed rate, grinding pressure and venturi pressure and these are summarised in Table 2 below.

Counter-ions that a name gives are not always drawn.

Turning to `Cc1cnc(Nc2cc(C)c(C)c(C)c2)nc1Nc1ccc2oc(=O)[nH]c2c1` [Compound (I), 5-((5-methyl-2-((3,4,5-trimethylphenyl)-amino)pyrimidin-4-yl)amino)benzo[d]oxazol-2(3H)-one], the IC50 in series [1] is less than 0.5 µM.
As to `Cc1cnc(Nc2cc(C)c(C)c(C)c2)nc1Nc1ccc2oc(=O)[nH]c2c1` [hemi-fumarate salt, 5-((5-methyl-2-((3,4,5-trimethylphenyl)-amino)pyrimidin-4-yl)amino)benzo[d]oxazol-2(3H)-one hemi-fumarate Salt], in series [2] (at 50 minutes, 0.1 M acetate buffer pH 4.5, 37° C., micronized material), the “increase in solubility compared to free base” value is listed as approximately 6 fold. For the same molecule, the aqueous solubility entry in series [2] (general statement, compared to Compound (I) free base) is given as “high aqueous solubility”.

What is called IC50 is the concentration needed to halve the response being measured.
